Patent publication US20030068802A1, “Use of streptococcus pneumoniae acyl carrier protein synthase crystal structure in diagnostics, antimicrobial drug design, and biosensors” (priority 2000, published 2003)

How the values were obtained:
[1] = target: T1, purified AcpS of S. pneumoniae (Streptococcus pneumoniae, UniProt P0A2W7); test: HPLC-based AcpS enzyme assay (conversion of apo-ACP to holo-ACP); assay type: biochemical; settings: for Ki: 3.7 nM AcpS; for relative activity as substrate of AcpS: CoA = 100, 1.5 μM apo-ACP, 20 μM CoA or CoA derivative, 19 nM AcpS
T1 construct: made in house; host or cells: E. coli BL21 (pLysS)/pRBP-19 (pET-11a)
T1 sequence (P0A2W7 1-120): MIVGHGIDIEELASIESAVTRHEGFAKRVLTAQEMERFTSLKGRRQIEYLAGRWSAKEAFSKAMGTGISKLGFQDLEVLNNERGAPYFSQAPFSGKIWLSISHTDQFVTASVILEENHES
Experimental: (§1) Unless otherwise indicated, reaction mixtures contain 50 mM Tris-HCl, pH 7.0, 10 mM MgCl2, 2.5-50 μM CoA, 0.25-6.0 μM purified apo-ACP of S. pneumoniae, and 3.7 nM purified AcpS of S. pneumoniae, and are incubated at 37° C. for 9 min. Reactions are stopped by the addition of 50 mM EDTA. The formation of holo-ACP is determined by an HPLC or a trichloroacetic acid (TCA) precipitation method (see below). An HPLC-based assay is adapted from the method described previously (Lambalot and Walsh, 1997). This assay monitors the conversion of apo-ACP to holo-ACP. Reaction mixtures (100 μl each) are injected into an analytical HPLC column (Vydac protein C4 reverse-phase; P. J. Cobert Associates, Inc., St. Louis, Mo.) equilibrated with 45% acetonitrile in 0.1% trifluoroacetic acid. The column is eluted with an 8 ml linear gradient of 45-80% acetonitrile. The column elution profiles are monitored at 220 nm. Under these conditions, holo-ACP migrates faster than apo-ACP. The amount of holo-ACP formed is estimated by comparing the peak area of the holo-ACP formed with those of both apo- and holo-ACP.
To examine the substrate specificity of AcpS, a variety of CoA derivatives (acetyl-CoA, malonyl-CoA, acetoacetyl-CoA, desulfo-CoA, and dephospho-CoA) are tested. All reaction mixtures contain 1.5 μM apo-ACP, 20 μM CoA or CoA derivative, and 19 nM AcpS, and the formation of holo-ACP is determined by the HPLC method.
For the determination of Km and Vmax (kcat) of AcpS for apo-ACP, reaction mixtures (in quadruplicate) contain 20 μM CoA, 0.25 to 100 μM apo-ACP, and 3.7 nM. AcpS. The formation of holo-ACP is measured by the HPLC method or the TCA precipitation method. To determine Km for CoA, the reaction conditions are the same as those described above except that the concentration of apo-ACP is 2.0 μM, and the concentrations of CoA were 5 to 600 μM. […]
To evaluate the inhibition of AcpS activity by 3′,5′-ADP with respect to CoA, reaction mixtures contain 1-60 μM 3′,5′-ADP, 2.5-60 μM CoA, 1.0 μM apo-ACP, and 3.7 nM AcpS. To evaluate the inhibition of AcpS activity by 3′,5′-ADP with respect to apo-ACP, reaction mixtures contain 1-60 μM 3′,5′-ADP, 0.5-6.0 μM apo-ACP, 20 μM CoA, and 3.7 nM AcpS. The formation of holo-ACP is analyzed by the HPLC method.

[2] = target: T1, purified AcpS of S. pneumoniae; test: Substrate binding to AcpS by gel filtration column chromatography, mass spectrometry and filter binding; settings: 27 μM AcpS, 10 mM MgCl2, 100 μM apo-ACP or 50 μM CoA, room temperature 30 min
Experimental: To determine whether AcpS binds directly to apo-ACP or CoA in the absence of the other substrate, a purified AcpS preparation (27 μM) is first mixed with 10 mM MgCl2, and then either 100 μM apo-ACP or 50 μM CoA. The mixture is incubated at room temperature for 30 min and subjected to gel filtration column chromatography (S-75 Superdex) under the conditions described above. The fractions containing the AcpS-apo-ACP complex and unbound apo-ACP are analyzed by SDS-PAGE (16% tricine gels), SYPRO Orange staining, and mass spectrometry.
The order of substrate binding to AcpS can be analyzed by determining the binding of CoA and apo-ACP to purified AcpS by gel filtration column chromatography, mass spectrometry, or filter binding assays. If CoA binds to AcpS first and forms an enzyme-substrate complex that is required for the next reaction with apo-ACP, then a stable enzyme-substrate complex should be detectable. […]
Whether apo-ACP binds to AcpS in the absence of CoA, a mixture of AcpS and apo-ACP (apo-ACP/AcpS=5:1) can be subjected to gel filtration column chromatography and analysis of the column fractions by SDS-PAGE. […] Consistent with the formation of the AcpS-apo-ACP complex, the presence of apo-ACP is also detected in the fractions containing purified AcpS (FIG. 2B). […]

[3] = substrate: CC(C)(COP(=O)(O)OP(=O)(O)OC[C@H]1O[C@@H](n2cnc3c(N)ncnc32)[C@H](O)[C@@H]1OP(=O)(O)O)[C@@H](O)C(=O)NCCC(=O)NCCS; test: TCA precipitation AcpS assay ([3H]CoA incorporation into apo-ACP); assay type: biochemical, Streptococcus pneumoniae; settings: other: TCA precipitation method
Experimental: AcpS activity is also assayed by using a TCA precipitation method (Lambalot and Walsh, 1995). This method measures the incorporation of the 3H-labeled 4′-phospho-pantotheine group from [^3H]CoA into apo-ACP. Reaction conditions are the same as those described for the HPLC assay, except that [^3H]COA (specific activity, 1.5 Ci/mmol, NEN Life Science Products, Boston, Mass.) is used alone or in combination with CoA. Reactions are stopped by the addition of 0.9 ml of cold 10% TCA followed by 37 μg of bovine serum albumin (BSA). Precipitated protein is collected by centrifugation (a microfuge at 14,000 rpm) for 5 min and washed twice with ice-cold 10% TCA. The protein collected is resuspended in 150 μl of 1M Tris base and 0.1% Triton X-100. The resulting suspension (100 μl) is mixed with 2.5 ml of Ready Protein+scintillation fluid (Beckman, Fullerton, Calif.), and counted using an LS 60001C scintillation counter (Beckman).
For the determination of Km and Vmax (kcat) of AcpS for apo-ACP, reaction mixtures (in quadruplicate) contain 20 μM CoA, 0.25 to 100 μM apo-ACP, and 3.7 nM. AcpS. The formation of holo-ACP is measured by the HPLC method or the TCA precipitation method. To determine Km for CoA, the reaction conditions are the same as those described above except that the concentration of apo-ACP is 2.0 μM, and the concentrations of CoA were 5 to 600 μM.

[4] = substrate: CC(C)(COP(=O)(O)OP(=O)(O)OC[C@H]1O[C@@H](n2cnc3c(N)ncnc32)[C@H](O)[C@@H]1OP(=O)(O)O)[C@@H](O)C(=O)NCCC(=O)NCCS; test: HPLC-based AcpS enzyme assay (conversion of apo-ACP to holo-ACP); assay type: biochemical, Streptococcus pneumoniae; settings: other: fixed apo-ACP 2 μM, various CoA, HPLC method; pH 7.0; 37.0 °C
Experimental: as §1, with “The amount of holo-ACP formed is estimated by comparing the peak area of the holo-ACP formed with those of both apo- and holo-ACP.” left out
To examine the substrate specificity of AcpS, a variety of CoA derivatives (acetyl-CoA, malonyl-CoA, acetoacetyl-CoA, desulfo-CoA, and dephospho-CoA) are tested. All reaction mixtures contain 1.5 μM apo-ACP, 20 μM CoA or CoA derivative, and 19 nM AcpS, and the formation of holo-ACP is determined by the HPLC method. […]

[5] = target: Streptococcus pneumoniae apo-acyl carrier protein (apo-ACP)

With `Nc1ncnc2c1ncn2[C@@H]1O[C@H](COP(=O)(O)O)[C@@H](OP(=O)(O)O)[C@H]1O` [3′,5′-ADP, 3′,5′-adenosine diphosphate] the Ki ([1]; inhibition of AcpS activity with respect to CoA, various CoA concentrations, fixed apo-ACP 1.0 μM, Dixon plot FIG. 7C) was 6 µM, the Ki ([1]; inhibition of AcpS activity with respect to apo-ACP, various apo-ACP concentrations, fixed CoA 20 μM, Dixon plot FIG. 7D) was 2.5 µM and the “pattern of inhibition with respect to CoA (double reciprocal plots)” value ([1]; various CoA, fixed apo-ACP) was “simple competitive pattern”. For the same molecule, the “pattern of inhibition with respect to apo-ACP (double reciprocal plots)” value ([1]; various apo-ACP, fixed CoA) was “linear-mixed pattern”.

`CC(C)(COP(=O)(O)OP(=O)(O)OC[C@H]1O[C@@H](n2cnc3c(N)ncnc32)[C@H](O)[C@@H]1OP(=O)(O)O)[C@@H](O)C(=O)NCCC(=O)NCCS` [CoA, Coenzyme A] was tested, and the “relative activity as substrate of AcpS” value [1] was 100 and the “binding to AcpS in the absence of the other substrate” value [2] was “does not appear to bind”.

With `CC(=O)CC(=O)SCCNC(=O)CCNC(=O)[C@H](O)C(C)(C)COP(=O)(O)OP(=O)(O)OC[C@H]1O[C@@H](n2cnc3c(N)ncnc32)[C@H](O)[C@@H]1OP(=O)(O)O` [acetoacetyl-CoA] the “relative activity as substrate of AcpS” value [1] was 65.

In the case of `CC(=O)SCCNC(=O)CCNC(=O)[C@H](O)C(C)(C)COP(=O)(O)OP(=O)(O)OC[C@H]1O[C@@H](n2cnc3c(N)ncnc32)[C@H](O)[C@@H]1OP(=O)(O)O` [acetyl-CoA], the “relative activity as substrate of AcpS” value [1] is reported as 91.

`CC(C)(COP(=O)(O)OP(=O)(O)OC[C@H]1O[C@@H](n2cnc3c(N)ncnc32)[C@H](O)[C@@H]1O)[C@@H](O)C(=O)NCCC(=O)NCCS` [dephospho-CoA] was tested, and the “relative activity as substrate of AcpS” value [1] was 0.

With `CCNC(=O)CCNC(=O)[C@H](O)C(C)(C)COP(=O)(O)OP(=O)(O)OC[C@H]1O[C@@H](n2cnc3c(N)ncnc32)[C@H](O)[C@@H]1OP(=O)(O)O` [desulfo-CoA] the “relative activity as substrate of AcpS” value [1] was 76.

In the case of `CC(C)(COP(=O)(O)OP(=O)(O)OC[C@H]1O[C@@H](n2cnc3c(N)ncnc32)[C@H](O)[C@@H]1OP(=O)(O)O)[C@@H](O)C(=O)NCCC(=O)NCCSC(=O)CC(=O)O` [malonyl-CoA], the “relative activity as substrate of AcpS” value [1] is reported as 12.

B1: purified AcpS of S. pneumoniae (Streptococcus pneumoniae R6) (protein)
chain: MIVGHGIDIEELASIESAVTRHEGFAKRVLTAQEMERFTSLKGRRQIEYLAGRWSAKEAFSKAMGTGISKLGFQDLEVLNNERGAPYFSQAPFSGKIWLSISHTDQFVTASVILEENHES
notes: made in house; host or cells: E. coli BL21 (pLysS)/pRBP-19 (pET-11a)
In the case of B1, the Km [3] is reported as 7.1 ± 0.4 µM, the Km [4] is reported as 11.5 ± 0.9 µM and the “Km (for apo-ACP), HPLC assay of holo-ACP formation, high apo-ACP concentrations” value [5] is reported as 109 ± 6.8 µM. For the same molecule, the Km (for apo-ACP), HPLC assay of holo-ACP formation, low apo-ACP concentrations [5] was 0.5 µM, the apparent Km for apo-ACP, TCA precipitation assay with [3H]CoA [5] was 1.3 µM and the “fold decrease of affinity (Km) at high versus low apo-ACP concentrations” value [5] was “approximately 200-fold”.
